Tests used:
[1] = test system: NCI-H460 cells; assay: Antiproliferation assay (Alamar Blue), anoxia vs air
[2] = test system: NCI-H460 cells; assay: Antiproliferation assay - oxygen dependence; type: cell-based, human
Description: . […] The calculated IC50 values (μM) are tabulated in Table Y1 (H460 cells) or Table Y2 (HT29 cells) below.

[3] = Homo sapiens, NCI-H460, 2 h, read-out: IC50 H460 Air, air, 2 h exposure
[4] = Homo sapiens, NCI-H460, 2 h, read-out: IC50 H460 Anoxia, anoxia, 2 h exposure
[5] = Homo sapiens, NCI-H460, read-out: IC50 in H460 cells, 0.6% O2
[6] = Homo sapiens, NCI-H460; read-out: IC50 in H460 cells, Air
[7] = Homo sapiens, NCI-H460, read-out: IC50 in H460 cells, Air
[8] = Homo sapiens, NCI-H460, read-out: IC50 in H460 cells, N2
[9] = read-out: IC50 H460 Air, air, 2 h exposure
[10] = read-out: IC50 H460 Anoxia, anoxia, 2 h exposure

Row | SMILES | IC50 [1, 3] | IC50 [1, 4] | also measured
1 | O=[N+]([O-])c1ncc(COP(=O)(NCCCl)NCCCl)n1C1CCCCC1 [Compound 76] | > 100 µM | 9 µM | 
2 | O=[N+]([O-])c1ncc(COP(=O)(NCCBr)NCCBr)n1CC(F)(F)F [Compound 90] | 3.4 µM | 0.01 µM | 
3 | C[C@H](CBr)NP(=O)(N[C@H](C)CBr)OCc1ccc([N+](=O)[O-])o1 [Compound 72] | 12 µM | 0.5 µM | 
4 | Cn1c(CSCCOP(=O)(NCCBr)NCCBr)cnc1[N+](=O)[O-] [Compound 91] | > 100 µM |  | 
5 | O=[N+]([O-])c1ccc(-c2ccc(OP3(=O)N(CCBr)CCN3CCBr)cc2)s1 [Compound 111] | 100 µM | 50 µM | 
6 | C[C@H](CCl)NP(=O)(N[C@H](C)CCl)OCc1ccc(-c2ccc([N+](=O)[O-])s2)cc1 [Compound 52] | 20 µM | 15 µM | IC50 [2, 5]: 10 µM; IC50 [2, 6]: 20 µM
7 | Cn1c(COP(=O)(NCCOS(C)(=O)=O)NCCOS(C)(=O)=O)cnc1[N+](=O)[O-] [Compound 67] | > 100 µM | 48 µM | 
8 | CC(OP(N)(=O)N(CCCl)CCCl)c1cnc([N+](=O)[O-])n1C (centres unmarked) [Compound 114] | 80 µM | 1 µM | IC50 [2, 5]: 5 µM; IC50 [2, 7]: 80 µM; IC50 [2, 8]: 1 µM
9 | Cn1c([N+](=O)[O-])nc(Br)c1-c1ccc(COP(=O)(NCCBr)NCCBr)cc1 [Compound 65] |  |  | IC50 [1, 9]: 75 µM; IC50 [1, 10]: 25 µM
10 | COc1cc(C(C)OP(=O)(NCCBr)NCCBr)ccc1OCc1cnc([N+](=O)[O-])n1C (centres unmarked) [Compound 60] | 15 µM | 15 µM | 
11 | CC(OP(=O)(NCCBr)NCCBr)c1ccc(OCc2ccc([N+](=O)[O-])o2)c([N+](=O)[O-])c1 (centres unmarked) [Compound 71] | 0.1 µM | 0.1 µM | 
12 | C[C@H](CCl)NP(=O)(N[C@H](C)CCl)OCc1ccc(-c2ccc([N+](=O)[O-])o2)cc1 [Compound 57] |  |  | IC50 ([1]; read-out: IC50 H460 Anoxia): 14 µM
13 | O=[N+]([O-])c1ccc(COP(=O)(NCCBr)NCCBr)cc1 [Compound 74] | > 100 µM | > 100 µM | 
14 | O=[N+]([O-])c1ccc(C#Cc2ccc(COP(=O)(NCCBr)NCCBr)cc2)s1 [Compound 58] | 10 µM | 5 µM | 
15 | C[C@@H](CCl)NP(=O)(N[C@@H](C)CCl)OCc1ccc([N+](=O)[O-])o1 [Compound 42] | 9 µM | 0.5 µM | 
16 | CC(OP(=O)(NCCBr)NCCBr)c1ccc(OCc2cnc([N+](=O)[O-])n2C)c([N+](=O)[O-])c1 (centres unmarked) [Compound 61] |  |  | IC50 [1, 9]: 4 µM; IC50 [1, 10]: 0.3 µM; IC50 ([2]; Air; read-out: IC50 in H460 cells, Air): 4 µM; IC50 ([2]; N2; read-out: IC50 in H460 cells, N2): 0.3 µM; IC50 ([2]; read-out: IC50 in H460 cells, 0.6% O2): 4 µM
17 | CC(C)(OP(N)(=O)N(CCCl)CCCl)c1ccc([N+](=O)[O-])cc1 (centres unmarked) [Compound 113] | ≥ 100 µM | 1 µM | IC50 [2, 5]: > 100 µM; IC50 [2, 7]: > 100 µM; IC50 [2, 8]: 1 µM
18 | Cc1cc(C(C)OP(N)(=O)N(CCCl)CCCl)sc1[N+](=O)[O-] (centres unmarked) [Compound 116] | 15 µM | 0.5 µM | 
19 | Cn1c(COC(=O)NCCCOP(=O)(NCCBr)NCCBr)cnc1[N+](=O)[O-] [Compound 68] | > 100 µM | ≥ 100 µM | 
20 | C[C@H](CCl)NP(=O)(N[C@H](C)CCl)OCc1ccc(OCc2cnc([N+](=O)[O-])n2C)c(F)c1 [Compound 51] | 7 µM | 3 µM | IC50 [2, 5]: 7 µM; IC50 [2, 6]: 7 µM

Row | SMILES | IC50 [1, 3] | IC50 [1, 4] | also measured
21 | CC(OP(=O)(NCCCl)NCCCl)c1ccc([N+](=O)[O-])o1 (centres unmarked) [Compound 104] | 12 µM | 0.4 µM | 
22 | CC(C)(C#Cc1ccc([N+](=O)[O-])cc1)OP(N)(=O)N(CCCl)CCCl (centres unmarked) [Compound 117] | 70 µM | 8 µM | 
23 | CC(OP(=O)(NCCCl)NCCCl)c1ccc([N+](=O)[O-])s1 (centres unmarked) [Compound 89] | 3.7 µM | 0.33 µM | 
24 | Cn1c(COc2ccc(COP3(=O)N(CCCl)CCCN3CCCl)cc2F)cnc1[N+](=O)[O-] [Compound 33] | 46 µM | 8 µM | 
25 | C[C@@H](CCl)NP(=O)(N[C@@H](C)CCl)OCc1ccc([N+](=O)[O-])s1 [Compound 41] |  |  | IC50 ([1]; read-out: IC50 H460 Air): 7 µM
26 | O=[N+]([O-])c1nccn1CCCOP(=O)(NCCBr)NCCBr [Compound 80] | > 100 µM | > 100 µM | 
27 | CC(=O)NP(=O)(OCc1cnc([N+](=O)[O-])n1C)N(CCCl)CCCl (centres unmarked) [Compound 149] | > 100 µM | 50 µM | 
28 | O=[N+]([O-])c1ccc(COP(=O)(NCCOS(=O)(=O)c2ccc(Cl)cc2)NCCOS(=O)(=O)c2ccc(Cl)cc2)o1 [Compound 107] |  |  | IC50 ([1]; Homo sapiens, NCI-H460, 2 h, read-out: IC50 H460 Air): 2.8 µM; IC50 ([1]; Homo sapiens, NCI-H460, 2 h, read-out: IC50 H460 Anoxia): 0.06 µM
29 | CC(C)[C@H](CCl)NP(=O)(N[C@@H](CCl)C(C)C)OCc1cnc([N+](=O)[O-])n1C [Compound 45] | > 100 µM | 6 µM | 
30 | O=[N+]([O-])c1ccc(COP(=O)(NCCBr)NCCBr)cc1F [Compound 79] | 3.5 µM | 3.5 µM | 
31 | CC(C)[C@H](CCl)NP(=O)(N[C@@H](CCl)C(C)C)OCc1ccc(OCc2cnc([N+](=O)[O-])n2C)c(F)c1 [Compound 49] |  |  | IC50 ([1]; read-out: IC50 H460 Air): > 100 µM
32 | C[C@H](CCl)NP(=O)(N[C@H](C)CCl)OCc1ccc([N+](=O)[O-])s1 [Compound 39] |  |  | IC50 ([1]; read-out: IC50 H460 Air): 5 µM; IC50 ([1]; read-out: IC50 H460 Anoxia): 0.2 µM
33 | Cn1c(COC(=O)NCCCCOP(=O)(NCCBr)NCCBr)cnc1[N+](=O)[O-] [Compound 69] | > 100 µM | 71 µM | 
34 | CC(C)[C@@H](CCl)NP(=O)(N[C@H](CCl)C(C)C)OCc1cnc([N+](=O)[O-])n1C [Compound 48] | > 100 µM |  | 
35 | CC(C)(C#Cc1ccc([N+](=O)[O-])s1)COP(N)(=O)N(CCCl)CCCl (centres unmarked) [Compound 115] | 5 µM | 0.5 µM | 
36 | CC(C)[C@H](CCl)NP(=O)(N[C@@H](CCl)C(C)C)OCc1ccc([N+](=O)[O-])o1 [Compound 43] | 60 µM | 2 µM | 
37 | CCCn1c(COP(=O)(NCCCl)NCCCl)cnc1[N+](=O)[O-] [Compound 83] | > 100 µM | 0.3 µM | 
38 | Cn1c([N+](=O)[O-])cnc1COc1ccc(COP(N)(=O)N(CCCl)CCCl)cc1 (centres unmarked) [Compound 142] | > 100 µM | > 40 µM | 
39 | Cn1c(COC(=O)NC(C)(C)COP2(=O)N(CCBr)CCN2CCBr)cnc1[N+](=O)[O-] [Compound 112] | > 100 µM | 70 µM | 
40 | CN(CCCl)P(=O)(OCc1ccc(OCc2cnc([N+](=O)[O-])n2C)c(F)c1)N(C)CCCl [Compound 150] | 21 µM |  | 

Row | SMILES | IC50 [1, 3] | IC50 [1, 4] | also measured
41 | N#Cc1cc(COP(=O)(NCCCl)NCCCl)sc1[N+](=O)[O-] [Compound 96] |  |  | IC50 [1, 9]: 0.1 µM; IC50 [1, 10]: 0.1 µM
42 | CC(OP(=O)(NCCBr)NCCBr)c1ccc(-c2ccc([N+](=O)[O-])s2)cc1 (centres unmarked) [Compound 59] | 6 µM | 2 µM | 
43 | Cn1c(COP(=O)(OCc2cnc([N+](=O)[O-])n2C)N(CCCl)CCCl)cnc1[N+](=O)[O-] [Compound 145] | > 100 µM | > 100 µM | 
44 | CC(OP(=O)(NCCBr)NCCBr)c1ccc([N+](=O)[O-])o1 (centres unmarked) [Compound 105] | 1 µM | < 0.1 µM | 
45 | O=[N+]([O-])c1ncc(COP(=O)(NCCBr)NCCBr)n1C1CCCCC1 [Compound 77] | 5.5 µM | 1.6 µM | 
46 | CC(OP(=O)(N[C@H](C)CCl)N[C@H](C)CCl)c1ccc([N+](=O)[O-])s1 (some centres unmarked) [Compound 93] |  |  | IC50 [1, 9]: 3.8 µM; IC50 [1, 10]: 0.1 µM
47 | Cn1c(COP(=O)(N2CC2)N2CC2)cnc1[N+](=O)[O-] [Compound 28] | 20 µM | 0.15 µM | 
48 | O=[N+]([O-])c1ccc(COP(=O)(NCCBr)NCCBr)c([N+](=O)[O-])c1 [Compound 75] | 26 µM | 9 µM | 
49 | O=[N+]([O-])c1ccc(COP(=O)(NCCCCCCCCNP(=O)(OCc2ccc([N+](=O)[O-])o2)N(CCCl)CCCl)N(CCCl)CCCl)o1 (centres unmarked) [Compound 139] | 100 µM | 16 µM | 
50 | O=[N+]([O-])c1sc(COP(=O)(NCCCl)NCCCl)cc1Br [Compound 95] | 2.7 µM |  | 
51 | Cn1c([N+](=O)[O-])cnc1/C=C/COP1(=O)N(CCCl)CCN1CCCl [Compound 147] | > 100 µM | > 100 µM | 
52 | Cn1c(CSCCCCOP(=O)(NCCBr)NCCBr)cnc1[N+](=O)[O-] [Compound 92] | > 100 µM | > 100 µM | 
53 | COc1cc2c(=O)n(CCN(C)P(=O)(OCc3ccc([N+](=O)[O-])o3)N(CCCl)CCCl)c3c4cc5c(cc4ncc3c2cc1OC)OCO5 (centres unmarked) [Compound 154] | 2 µM | 0.9 µM | 
54 | O=[N+]([O-])c1ccc(COP(=O)(N(CCCl)CCCl)N(CCCl)CCCl)o1 [Compound 143] | 3.5 µM | 4.5 µM | 
55 | O=[N+]([O-])c1ccc(COP(=O)(NCCOCCOCCNP(=O)(OCc2ccc([N+](=O)[O-])o2)N(CCCl)CCCl)N(CCCl)CCCl)o1 (centres unmarked) [Compound 140] | 65 µM | 5 µM | 
56 | CC(OP(=O)(NCCCl)NCCCl)c1ncc([N+](=O)[O-])n1C (centres unmarked) [Compound 87] | > 100 µM | 22 µM | 
57 | O=[N+]([O-])c1sc(COP(=O)(NCCBr)NCCBr)cc1Br [Compound 94] | 2 µM | 0.3 µM | 
58 | O=[N+]([O-])c1ccsc1COP(=O)(NCCBr)NCCBr [Compound 86] |  |  | IC50 [1, 9]: 3 µM; IC50 [1, 10]: 1.4 µM

From patent US8507464B2, “Phosphoramidate alkylator prodrugs” (Threshold Pharmaceuticals, Inc., priority 2005, dated 2013)
